Assay: Inhibition of bovine liver beta-glucosidase

IC50: 244 µM
Compound: C[C@@H]1CNC[C@@H](O)[C@@H](O)[C@@H]1O

— BindingDB's records for doi:10.1016/j.bmc.2010.09.053 (Umr Cnrs 7201, 2012)
